Source: patent US4698338A, “7[2-(2-aminothiazol-4-yl)-2-benzyloximino]acetamido-3[4-al kyl-5-oxo-6-hydroxy-3,4-dihydro-1,2,4-triazin-3-yl]thiomethyl cephalosporins” (Eli Lilly and Company, priority 1986, dated 1987)
≈ marks a conversion by molar mass, not a printed value. Like-named read-outs stand apart in the source and are kept apart here.

What was measured:
Test in all cases: standard agar dilution in vitro test
Format in all cases: cell-based
[1] = test system: Haemophilus influenzae 76; settings: read-out: Minimum Inhibitory Concentration
Description: (§1) The antibacterial activity of the compounds of the formula 1 is illustrated by the data presented in Table 2 for two such compounds. The data presented are the minimum inhibitory concentrations (μg/ml) against representative pathogens obtained in the standard agar dilution in vitro test.

[2] = test system: Staphylococcus aureus X1.1; settings: read-out: Minimum Inhibitory Concentration
Description: as §1

[3] = test system: Pseudomonas aeruginosa X528; settings: read-out: Minimum Inhibitory Concentration
Description: as §1

[4] = test system: Staphylococcus aureus X400; settings: read-out: Minimum Inhibitory Concentration
Description: as §1

[5] = test system: Haemophilus influenzae C.L.; settings: read-out: Minimum Inhibitory Concentration
Description: as §1

[6] = test system: Pseudomonas aeruginosa PS18; settings: read-out: Minimum Inhibitory Concentration
Description: as §1

[7] = test system: Streptococcus pneumoniae Park I; settings: read-out: Minimum Inhibitory Concentration
Description: as §1

[8] = test system: Streptococcus Group D 2041; settings: GROUPD2041, read-out: Minimum Inhibitory Concentration
Description: as §1

[9] = test system: Shigella sonnei N9; settings: read-out: Minimum Inhibitory Concentration
Description: as §1

[10] = test system: Klebsiella pneumoniae X68
Description: as §1

[11] = test system: Staphylococcus aureus V41; settings: read-out: Minimum Inhibitory Concentration
Description: as §1

[12] = test system: Staphylococcus epidermidis 222; settings: read-out: Minimum Inhibitory Concentration
Description: as §1

[13] = test system: Streptococcus Group D X66; settings: read-out: Minimum Inhibitory Concentration
Description: as §1

[14] = test system: Klebsiella pneumoniae KAE; settings: read-out: Minimum Inhibitory Concentration
Description: as §1

[15] = test system: Staphylococcus aureus 513E; settings: read-out: Minimum Inhibitory Concentration
Description: as §1

[16] = test system: Streptococcus pyogenes C203; settings: read-out: Minimum Inhibitory Concentration
Description: as §1

[17] = test system: Enterobacter cloacae 265A; settings: read-out: Minimum Inhibitory Concentration
Description: as §1

[18] = test system: Enterobacter cloacae EB5; settings: read-out: Minimum Inhibitory Concentration
Description: as §1

[19] = test system: Salmonella typhi X514; settings: Salmonella enterica, read-out: Minimum Inhibitory Concentration
Description: as §1

[20] = test system: Salmonella typhi 1335; settings: Salmonella enterica, read-out: Minimum Inhibitory Concentration
Description: as §1

[21] = test system: Pseudomonas aeruginosa X239; settings: read-out: Minimum Inhibitory Concentration
Description: as §1

[22] = test system: Escherichia coli TEM; settings: read-out: Minimum Inhibitory Concentration
Description: as §1

[23] = test system: Klebsiella pneumoniae X26; settings: read-out: Minimum Inhibitory Concentration
Description: as §1

[24] = test system: Pseudomonas aeruginosa PS72; settings: read-out: Minimum Inhibitory Concentration
Description: as §1

[25] = test system: Serratia marcescens SE3; settings: read-out: Minimum Inhibitory Concentration
Description: as §1

[26] = test system: Escherichia coli N10; settings: read-out: Minimum Inhibitory Concentration
Description: as §1

[27] = test system: Proteus rettgeri C24; settings: Providencia rettgeri
Description: as §1

[28] = test system: Acinetobacter calcoaceticus AC12; settings: read-out: Minimum Inhibitory Concentration
Description: as §1

[29] = test system: Escherichia coli EC14
Description: as §1

[30] = test system: Proteus inconstans PR33; settings: Providencia alcalifaciens
Description: as §1

[31] = test system: Proteus morganii PR15; settings: Morganella morganii, read-out: Minimum Inhibitory Concentration
Description: as §1

[32] = test system: Staphylococcus epidermidis EPi1; settings: read-out: Minimum Inhibitory Concentration
Description: as §1

[33] = test system: Enterobacter aerogenes EB17; settings: Klebsiella aerogenes, read-out: Minimum Inhibitory Concentration
Description: as §1

[34] = test system: Citrobacter freundii CF17; settings: read-out: Minimum Inhibitory Concentration
Description: as §1

[35] = test system: Enterobacter aerogenes C32; settings: Klebsiella aerogenes, read-out: Minimum Inhibitory Concentration
Description: as §1

[36] = test system: Serratia marcescens X99; settings: read-out: Minimum Inhibitory Concentration
Description: as §1

`Cn1nc(O)c(=O)nc1SCC1=C(C(=O)O)N2C(=O)[C@@H](NC(=O)/C(=N\OCc3cc(Cl)ccc3Cl)c3csc(N)n3)[C@H]2SC1` [Test Compound B, 7β-[2-(2-Aminothiazol-4-yl)-2-(2,5-dichlorobenzyloxyimino)acetamido]-3-[(2,5-dihydro-6-hydroxy-2-methyl-5-oxo-1,2,4-triazin-3-yl)thiomethyl]-3-cephem-4-carboxylic acid] showed an MIC [1] of 0.015 µg/mL (≈ 0.0214 µM), an MIC [2] of 0.5 µg/mL (≈ 0.715 µM) and an MIC [3] of 64 µg/mL (≈ 91.5 µM). It also gave an MIC [4] of 32 µg/mL (≈ 45.7 µM), an MIC [5] of 0.03 µg/mL (≈ 0.0429 µM) and an MIC [6] of 32 µg/mL (≈ 45.7 µM). For the same molecule, the MIC [7] was less than 0.008 µg/mL, the MIC [8] was 0.5 µg/mL (≈ 0.715 µM) and the MIC [9] was 0.5 µg/mL (≈ 0.715 µM). It also gave an MIC ([10]; Klebsiella pneumoniae X68, agar dilution, read-out: Minimum Inhibitory Concentration) of 0.25 µg/mL (≈ 0.357 µM), an MIC [11] of 4 µg/mL (≈ 5.72 µM) and an MIC [12] of 0.5 µg/mL (≈ 0.715 µM). For the same molecule, the MIC [13] was greater than 128 µg/mL, the MIC [14] was 16 µg/mL (≈ 22.9 µM) and the MIC [15] was 4 µg/mL (≈ 5.72 µM). For the same molecule, the MIC [16] was less than 0.008 µg/mL, the MIC [17] was 128 µg/mL (≈ 183 µM) and the MIC [18] was 0.25 µg/mL (≈ 0.357 µM). The MIC [19] was 0.25 µg/mL (≈ 0.357 µM), the MIC [20] was 1 µg/mL (≈ 1.43 µM) and the MIC [21] was 8 µg/mL (≈ 11.4 µM). For the same molecule, the MIC [22] was 0.06 µg/mL (≈ 0.0858 µM), the MIC [23] was 0.06 µg/mL (≈ 0.0858 µM) and the MIC [24] was 16 µg/mL (≈ 22.9 µM). For the same molecule, the MIC [25] was 2 µg/mL (≈ 2.86 µM), the MIC [26] was 0.25 µg/mL (≈ 0.357 µM) and the MIC ([27]; Proteus rettgeri C24, agar dilution, read-out: Minimum Inhibitory Concentration) was 0.5 µg/mL (≈ 0.715 µM). For the same molecule, the MIC [28] was 2 µg/mL (≈ 2.86 µM), the MIC ([29]; Escherichia coli EC14, agar dilution, read-out: Minimum Inhibitory Concentration) was 0.25 µg/mL (≈ 0.357 µM) and the MIC ([30]; Proteus inconstans PR33, agar dilution, read-out: Minimum Inhibitory Concentration) was 0.25 µg/mL (≈ 0.357 µM). For the same molecule, the MIC [31] was 0.5 µg/mL (≈ 0.715 µM), the MIC [32] was 8 µg/mL (≈ 11.4 µM) and the MIC [33] was 1 µg/mL (≈ 1.43 µM). For the same molecule, the MIC [34] was 2 µg/mL (≈ 2.86 µM), the MIC [35] was 0.25 µg/mL (≈ 0.357 µM) and the MIC [36] was 1 µg/mL (≈ 1.43 µM).
With `Cn1nc(O)c(=O)nc1SCC1=C(C(=O)O)N2C(=O)[C@@H](NC(=O)/C(=N\OCc3ccc(O)cc3)c3csc(N)n3)[C@H]2SC1` [Test Compound A, 7β-[2-(2-Aminothiazol-4-yl)-2-(4-hydroxybenzyloxyimino)acetamido]-3-[(2,5-dihydro-6-hydroxy-2-methyl5-oxo-1,2,4-triazin-3-yl)thiomethyl]-3-cephem-4carboxylic acid] the MIC [2] was 1 µg/mL (≈ 1.55 µM), the MIC [3] was 128 µg/mL (≈ 198 µM) and the MIC [4] was 16 µg/mL (≈ 24.7 µM). The MIC [5] was 0.03 µg/mL (≈ 0.0464 µM), the MIC [6] was 16 µg/mL (≈ 24.7 µM) and the MIC [7] was less than 0.008 µg/mL. For the same molecule, the MIC [8] was 1 µg/mL (≈ 1.55 µM), the MIC [9] was 0.125 µg/mL (≈ 0.193 µM) and the MIC ([10]; Klebsiella pneumoniae, X68, read-out: Minimum Inhibitory Concentration) was 0.125 µg/mL (≈ 0.193 µM). It also gave an MIC [11] of 8 µg/mL (≈ 12.4 µM), an MIC [12] of 2 µg/mL (≈ 3.09 µM) and an MIC [13] of 128 µg/mL (≈ 198 µM). The MIC [14] was 16 µg/mL (≈ 24.7 µM), the MIC [15] was 8 µg/mL (≈ 12.4 µM) and the MIC [16] was less than 0.008 µg/mL. For the same molecule, the MIC [17] was 128 µg/mL (≈ 198 µM), the MIC [18] was 0.5 µg/mL (≈ 0.773 µM) and the MIC [19] was 0.125 µg/mL (≈ 0.193 µM). It also gave an MIC [20] of 0.25 µg/mL (≈ 0.387 µM), an MIC [21] of 8 µg/mL (≈ 12.4 µM) and an MIC [22] of 0.03 µg/mL (≈ 0.0464 µM). For the same molecule, the MIC [23] was 0.06 µg/mL (≈ 0.0928 µM), the MIC [24] was 64 µg/mL (≈ 99 µM) and the MIC [25] was 4 µg/mL (≈ 6.19 µM). It also gave an MIC [26] of 0.25 µg/mL (≈ 0.387 µM), an MIC ([27]; C24, read-out: Minimum Inhibitory Concentration) of 0.125 µg/mL (≈ 0.193 µM) and an MIC [28] of 16 µg/mL (≈ 24.7 µM). For the same molecule, the MIC ([29]; Escherichia coli, EC14, read-out: Minimum Inhibitory Concentration) was 0.125 µg/mL (≈ 0.193 µM), the MIC ([30]; PR33, read-out: Minimum Inhibitory Concentration) was 0.125 µg/mL (≈ 0.193 µM) and the MIC [31] was 1 µg/mL (≈ 1.55 µM). For the same molecule, the MIC [32] was 8 µg/mL (≈ 12.4 µM), the MIC [33] was 0.5 µg/mL (≈ 0.773 µM) and the MIC [34] was 4 µg/mL (≈ 6.19 µM). It also gave an MIC [35] of 0.25 µg/mL (≈ 0.387 µM) and an MIC [36] of 0.5 µg/mL (≈ 0.773 µM).
